molecular target: BRD4 (Homo sapiens, UniProt O60885); experiment: Time Resolved Fluorescence Resonance Energy Transfer (TR-FRET) binding assay; conditions: one of the FRET assays described (BRD4 construct not given)

SMILES	IC50 [nM]
Cc1noc(C)c1-c1cc(C(N)=O)c2c(c1)c1ccc(C(=O)N3CCCOCC3)cc1n2S(C)(=O)=O [Example 17, 3-(3,5-dimethyl-4-isoxazolyl)-9-(methylsulfonyl)-7-(1,4-oxazepan-4-ylcarbonyl)-9H-carbazole-1-carboxamide]	< 50
Cc1noc(C)c1-c1cc(C(N)=O)c2c(c1)c1ccc(N(C)C)cc1n2CC1CC1 [Example 38, 9-(cyclopropylmethyl)-7-(dimethylamino)-3-(3,5-dimethyl-4-isoxazolyl)-9H-carbazole-1-carboxamide]	< 50
Cc1noc(C)c1-c1cc(-c2nc[nH]n2)c2c(c1)c1ccc(C(=O)N3CCOCC3)cc1n2CC1CC1 [Example 70, 9-(cyclopropylmethyl)-3-(3,5-dimethyl-4-isoxazolyl)-7-(4-morpholinylcarbonyl)-1-(1H-1,2,4-triazol-3-yl)-9H-carbazole]	< 5000
Cc1nnn(C)c1-c1cc(C(N)=O)c2c(c1)c1ccc(C(=O)N3C[C@@H](C)O[C@@H](C)C3)cc1n2CC1CC1 [Example 84, 9-(cyclopropylmethyl)-7-((cis-2,6-dimethyl-4-morpholinyl)carbonyl)-3-(1,4-dimethyl-1H-1,2,3-triazol-5-yl)-9H-carbazole-1-carboxamide]	< 500
Cc1noc(C)c1-c1cc(C#N)c2c(c1)c1ccc(C(=O)N3CCOCC3)cc1n2CC1CC1 [Example 59, 9-(cyclopropylmethyl)-3-(3,5-dimethyl-4-isoxazolyl)-7-(4-morpholinylcarbonyl)-9H-carbazole-1-carbonitrile]	< 5000
Cc1noc(C)c1-c1cc(C(N)=O)c2c(c1)c1ccc(S(C)(=O)=O)cc1n2CC1CC1 [Example 80, 9-(cyclopropylmethyl)-3-(3,5-dimethylisoxazol-4-yl)-7-(methylsulfonyl)-9H-carbazole-1-carboxamide]	< 50
Cc1noc(C)c1-c1cc(C(N)=S)c2[nH]c3cc(C(=S)N4CCOCC4)ccc3c2c1 [Example 63, 3-(3,5-dimethyl-4-isoxazolyl)-7-(4-morpholinylcarbonothioyl)-9H-carbazole-1-carbothioamide]	< 500
Cc1noc(C)c1-c1cc(C(N)=O)c2c(c1)c1ccc(C(=O)N3CCCC(F)C3)cc1n2S(C)(=O)=O (stereo not shown) [Example 13, 3-(3,5-dimethyl-4-isoxazolyl)-7-((3-fluoro-1-piperidinyl)carbonyl)-9-(methylsulfonyl)-9H-carbazole-1-carboxamide]	< 50
Cc1noc(C)c1-c1cc(C(N)=O)c2c(c1)c1ccc(C(=O)N3CCC(N(C)C)C3)cc1n2S(C)(=O)=O (stereo not shown) [Example 18, 7-((3-(dimethylamino)-1-pyrrolidinyl)carbonyl)-3-(3,5-dimethyl-4-isoxazolyl)-9-(methylsulfonyl)-9H-carbazole-1-carboxamide]	< 50
Cc1noc(C)c1-c1cc(C(N)=O)c2c(c1)c1cc(S(C)(=O)=O)ccc1n2CC1CC1 [Example 78, 9-(cyclopropylmethyl)-3-(3,5-dimethyl-4-isoxazolyl)-6-(methylsulfonyl)-9H-carbazole-1-carboxamide]	< 50
Cc1noc(C)c1-c1cc(C(N)=O)c2c(c1)c1ccc(N3CCCOC3=O)cc1n2CC1CC1 [Example 43, 9-(cyclopropylmethyl)-3-(3,5-dimethyl-4-isoxazolyl)-7-(2-oxo-1,3-oxazinan-3-yl)-9H-carbazole-1-carboxamide]	< 50
Cc1noc(C)c1-c1cc(C(N)=O)c2c(c1)c1cc(C(=O)N3CCOCC3)ccc1n2S(=O)(=O)C1CC1 [Example 87, 9-(cyclopropylsulfonyl)-3-(3,5-dimethyl-4-isoxazolyl)-6-(4-morpholinylcarbonyl)-9H-carbazole-1-carboxamide]	< 50
Cc1noc(C)c1-c1cc(C(N)=O)c2c(c1)c1ccc(C(=O)N3CCS(=O)(=O)CC3)cc1n2S(C)(=O)=O [Example 15, 3-(3,5-dimethyl-4-isoxazolyl)-7-((1,1-dioxido-4-thiomorpholinyl)carbonyl)-9-(methylsulfonyl)-9H-carbazole-1-carboxamide]	< 5000
CC(=O)n1c2cc(C(=O)N3C[C@@H](C)O[C@@H](C)C3)ccc2c2cc(-c3c(C)noc3C)cc(C(N)=O)c21 [Example 60, 9-acetyl-3-(3,5-dimethyl-4-isoxazolyl)-7-(cis-2,6-dimethylmorpholine-4-carbonyl)-9H-carbazole-1-carboxamide]	< 5000
Cc1csc(-c2cc(-c3c(C)noc3C)cc3c2[nH]c2cc(C(=O)N4CCOCC4)ccc23)n1 [Example 65]	< 5000
Cc1noc(C)c1-c1cc(C(N)=O)c2c(c1)c1ccc(C(=O)N3C[C@@H](C)O[C@@H](C)C3)cc1n2S(=O)(=O)C1CC1 [Example 88, 9-(cyclopropylsulfonyl)-3-(3,5-dimethyl-4-isoxazolyl)-7-((cis-2,6-dimethyl-4-morpholinyl)carbonyl)-9H-carbazole-1-carboxamide]	< 50
Cc1noc(C)c1-c1cc(C(N)=O)c2c(c1)c1ccc(C(=O)N3CC(F)C3)cc1n2S(=O)(=O)C1CC1 [Example 21, 9-(cyclopropylsulfonyl)-3-(3,5-dimethyl-4-isoxazolyl)-7-((3-fluoro-1-azetidinyl)carbonyl)-9H-carbazole-1-carboxamide]	< 50

SMILES	IC50 [nM]
Cc1noc(C)c1-c1cc(C(N)=O)c2c(c1)c1ccc(CN3CCOCC3)cc1n2CC1CC1 [Example 51, 9-(cyclopropylmethyl)-3-(3,5-dimethyl-4-isoxazolyl)-7-(4-morpholinylmethyl)-9H-carbazole-1-carboxamide]	< 500
Cc1noc(C)c1-c1cc(-c2nc[nH]n2)c2[nH]c3cc(C(=O)N4CCOCC4)ccc3c2c1 [Example 69, 3-(3,5-dimethyl-4-isoxazolyl)-7-(4-morpholinylcarbonyl)-1-(1H-1,2,4-triazol-3-yl)-9H-carbazole]	< 500
Cc1noc(C)c1-c1cc(C(N)=O)c2c(c1)c1ccc(C(C)(C)O)cc1n2CC1CC1 [Example 53, 9-(cyclopropylmethyl)-3-(3,5-dimethyl-4-isoxazolyl)-7-(1-hydroxy-1-methylethyl)-9H-carbazole-1-carboxamide]	< 500
Cc1noc(C)c1-c1cc(C(N)=O)c2c(c1)c1ccc(C(=O)N3CCC(C#N)CC3)cc1n2S(=O)(=O)C1CC1 [Example 20, 7-((4-cyano-1-piperidinyl)carbonyl)-9-(cyclopropylsulfonyl)-3-(3,5-dimethyl-4-isoxazolyl)-9H-carbazole-1-carboxamide]	< 50
Cc1noc(C)c1-c1cc(C(N)=O)c2[nH]c3cc(C(=O)N4CCOCC4)ccc3c2c1 [Example 3, 3-(3,5-dimethyl-4-isoxazolyl)-7-(4-morpholinylcarbonyl)-9H-carbazole-1-carboxamide]	< 500
CCOC(=O)Nc1ccc2c3cc(-c4c(C)noc4C)cc(C(N)=O)c3n(CC3CC3)c2c1 [Example 32, Ethyl(8-carbamoyl-9-(cyclopropylmethyl)-6-(3,5-dimethyl-4-isoxazolyl)-9H-carbazol-2-yl)carbamate]	< 5000
Cc1noc(C)c1-c1cc(C(N)=O)c2c(c1)c1ccc(N3CCCCC3=O)cc1n2CC1CC1 [Example 42, 9-(cyclopropylmethyl)-3-(3,5-dimethyl-4-isoxazolyl)-7-(2-oxo-1-piperidinyl)-9H-carbazole-1-carboxamide]	< 500
Cc1noc(C)c1-c1cc(C(N)=O)c2c(c1)c1ccc(N3CCCS3(=O)=O)cc1n2CC1CC1 [Example 71, 9-(cyclopropylmethyl)-3-(3,5-dimethyl-4-isoxazolyl)-7-(1,1-dioxido-2-isothiazolidinyl)-9H-carbazole-1-carboxamide]	< 50
Cc1noc(C)c1-c1cc(C(N)=O)c2c(c1)c1ccc(C=O)cc1n2CC1CC1 [Example 47, 9-(cyclopropylmethyl)-3-(3,5-dimethyl-4-isoxazolyl)-7-formyl-9H-carbazole-1-carboxamide]	< 500
Cc1noc(C)c1-c1cc(C(N)=O)c2c(c1)c1ccc(Br)cc1n2CC1CC1 [Example 34, 7-bromo-9-(cyclopropylmethyl)-3-(3,5-dimethyl-4-isoxazolyl)-9H-carbazole-1-carboxamide]	< 500
Cc1noc(C)c1-c1cc(C(N)=O)c2[nH]c3cc(C(=O)N4CCCCC4)ccc3c2c1 [Example 1, 3-(3,5-dimethyl-4-isoxazolyl)-7-(1-piperidinylcarbonyl)-9H-carbazole-1-carboxamide]	< 500
Cc1noc(C)c1-c1cc(C(N)=O)c2c(c1)c1ccc(C(=O)N3CCC(C#N)CC3)cc1n2S(C)(=O)=O [Example 6, 7-((4-cyano-1-piperidinyl)carbonyl)-3-(3,5-dimethyl-4-isoxazolyl)-9-(methylsulfonyl)-9H-carbazole-1-carboxamide]	< 50
Cc1noc(C)c1-c1cc(C(N)=O)c2c(c1)c1ccc(N(c3nccs3)c3nccs3)cc1n2CC1CC1 [Example 30, 9-(cyclopropylmethyl)-3-(3,5-dimethyl-4-isoxazolyl)-7-(di-1,3-thiazol-2-ylamino)-9H-carbazole-1-carboxamide]	< 500
CCNC(=O)n1c2cc(C(=O)N3C[C@@H](C)O[C@@H](C)C3)ccc2c2cc(-c3c(C)noc3C)cc(C(N)=O)c21 [Example 61, 3-(3,5-dimethyl-4-isoxazolyl)-7-(cis-2,6-dimethylmorpholine-4-carbonyl)-N9-ethyl-9H-carbazole-1,9-dicarboxamide]	< 5000
Cc1noc(C)c1-c1cc(C(N)=O)c2c(c1)c1ccc(C(=O)N3CC(F)C3)cc1n2S(C)(=O)=O [Example 7, 3-(3,5-dimethyl-4-isoxazolyl)-7-((3-fluoro-1-azetidinyl)carbonyl)-9-(methylsulfonyl)-9H-carbazole-1-carboxamide]	< 50
Cc1noc(C)c1-c1cc(C(N)=O)c2c(c1)c1ccc(C(=O)N3CCCC(F)C3)cc1n2S(=O)(=O)C1CC1 (stereo not shown) [Example 23, 9-(cyclopropylsulfonyl)-3-(3,5-dimethyl-4-isoxazolyl)-7-((3-fluoro-1-piperidinyl)carbonyl)-9H-carbazole-1-carboxamide]	< 50
Cc1noc(C)c1-c1cc(C(N)=O)c2c(c1)c1ccc(C(=O)N3CNC(=O)C3)cc1n2S(C)(=O)=O [Example 19, 3-(3,5-dimethyl-4-isoxazolyl)-9-(methylsulfonyl)-7-((4-oxo-1-imidazolidinyl)carbonyl)-9H-carbazole-1-carboxamide]	< 500

Source: patent US10053454B2 (Bristol-Myers Squibb Company, priority 2013, dated 2018)
